Literature values as cited in patent US20080234349A1, “PPAR active compounds” (priority 2005, published 2008).

How the values were obtained:
[1] = recent large prospective trial, patients
murine PPARα = biological target: T1, murine PPARα (Mus musculus, UniProt P23204)
T1 sequence (P23204 1-468): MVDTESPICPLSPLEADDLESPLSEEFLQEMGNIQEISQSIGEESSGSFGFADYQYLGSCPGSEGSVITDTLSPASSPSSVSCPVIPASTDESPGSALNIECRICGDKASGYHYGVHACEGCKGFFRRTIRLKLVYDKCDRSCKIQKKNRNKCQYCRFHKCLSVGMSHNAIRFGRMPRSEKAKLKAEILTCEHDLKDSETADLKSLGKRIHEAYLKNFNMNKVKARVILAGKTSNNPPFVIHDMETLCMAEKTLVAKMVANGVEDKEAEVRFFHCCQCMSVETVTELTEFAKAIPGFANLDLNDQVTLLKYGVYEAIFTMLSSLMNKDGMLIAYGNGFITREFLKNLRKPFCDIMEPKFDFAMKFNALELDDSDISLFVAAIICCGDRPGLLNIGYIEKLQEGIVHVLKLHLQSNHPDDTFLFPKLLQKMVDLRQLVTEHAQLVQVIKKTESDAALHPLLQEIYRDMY

PPARδ = biological target: T2, PPARδ (Homo sapiens, UniProt Q03181)
T2 sequence (Q03181 1-441): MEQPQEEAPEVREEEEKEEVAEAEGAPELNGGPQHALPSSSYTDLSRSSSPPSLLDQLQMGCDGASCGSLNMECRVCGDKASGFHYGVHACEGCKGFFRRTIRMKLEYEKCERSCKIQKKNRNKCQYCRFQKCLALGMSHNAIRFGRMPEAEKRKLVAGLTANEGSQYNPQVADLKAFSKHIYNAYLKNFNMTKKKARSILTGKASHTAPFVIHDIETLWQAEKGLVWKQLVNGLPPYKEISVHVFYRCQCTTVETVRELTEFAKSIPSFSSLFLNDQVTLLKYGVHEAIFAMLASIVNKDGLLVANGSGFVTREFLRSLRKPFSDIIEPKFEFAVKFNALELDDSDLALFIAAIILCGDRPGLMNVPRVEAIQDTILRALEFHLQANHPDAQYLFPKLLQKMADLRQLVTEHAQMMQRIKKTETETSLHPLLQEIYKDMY

activity on murine PPARα (murine PPARα) | agonist selectivity for PPARδ over PPARγ (PPARδ) | SMILES | reduction in cardiovascular events or death [1] [%]
– | – | Cc1ccc(C)c(OCCCC(C)(C)C(=O)O)c1 [gemfibrozil] | 22
inactive | approximately 30 fold | CCCc1c(OCCCOc2ccc(OCC(=O)O)cc2)ccc(C(C)=O)c1O [Compound L-165041] | –
